ChEMBL document CHEMBL5257088 (J Nat Prod, 2023)
Calls of active or inactive are those of the source. The rule behind the calls is not given here.

Columns and labels:
[1] = target: T1, Muscarinic acetylcholine receptor M4 (Homo sapiens, UniProt P08173)
T1 sequence (P08173 whole entry): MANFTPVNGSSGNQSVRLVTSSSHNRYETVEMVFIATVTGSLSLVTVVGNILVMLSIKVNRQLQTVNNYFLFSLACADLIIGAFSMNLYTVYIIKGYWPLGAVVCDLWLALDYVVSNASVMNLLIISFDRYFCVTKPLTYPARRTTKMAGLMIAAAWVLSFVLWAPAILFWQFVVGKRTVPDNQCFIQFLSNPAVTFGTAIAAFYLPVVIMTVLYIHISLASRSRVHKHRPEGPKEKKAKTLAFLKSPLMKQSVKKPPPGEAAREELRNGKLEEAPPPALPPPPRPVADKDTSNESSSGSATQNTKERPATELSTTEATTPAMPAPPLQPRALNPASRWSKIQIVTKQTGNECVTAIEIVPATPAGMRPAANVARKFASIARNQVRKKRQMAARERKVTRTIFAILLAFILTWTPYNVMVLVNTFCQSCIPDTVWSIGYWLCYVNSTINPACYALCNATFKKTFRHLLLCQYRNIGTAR
Description: Partial agonist activity at N-terminal FLAG tagged/C-terminal NanoLuc tagged human muscarinic M4 receptor expressed in HEK293T cells using furimazine as substrate assessed as receptor activation preincubated with substrate for 1 min followed by compound addition and measured for 6 mins 27 sec by NanoBRET assay

[2] = target: T2, Muscarinic acetylcholine receptor M5 (Homo sapiens, UniProt P08912)
T2 sequence (P08912 whole entry): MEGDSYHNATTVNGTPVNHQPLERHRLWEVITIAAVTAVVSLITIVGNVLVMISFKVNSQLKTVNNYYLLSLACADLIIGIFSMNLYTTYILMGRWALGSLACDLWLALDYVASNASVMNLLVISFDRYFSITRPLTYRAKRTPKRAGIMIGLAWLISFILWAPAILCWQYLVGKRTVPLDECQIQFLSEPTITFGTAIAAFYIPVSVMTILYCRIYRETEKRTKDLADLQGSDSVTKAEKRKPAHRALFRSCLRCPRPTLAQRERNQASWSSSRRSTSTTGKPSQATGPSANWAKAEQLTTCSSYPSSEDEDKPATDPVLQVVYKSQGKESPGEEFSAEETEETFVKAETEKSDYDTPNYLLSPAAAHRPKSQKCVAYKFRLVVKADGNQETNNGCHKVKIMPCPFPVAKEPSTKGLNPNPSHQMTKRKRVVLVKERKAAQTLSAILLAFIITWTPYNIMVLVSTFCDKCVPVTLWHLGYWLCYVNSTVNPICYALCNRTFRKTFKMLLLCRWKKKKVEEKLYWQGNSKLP
Description: Partial agonist activity at N-terminal FLAG tagged/C-terminal NanoLuc tagged human muscarinic M5 receptor expressed in HEK293T cells using furimazine as substrate assessed as receptor activation preincubated with substrate for 1 min followed by compound addition and measured for 6 mins 27 sec by NanoBRET assay

[3] = target: T3, Muscarinic acetylcholine receptor M3 (Homo sapiens, UniProt P20309)
Target sequence in this assay (P20309 whole entry): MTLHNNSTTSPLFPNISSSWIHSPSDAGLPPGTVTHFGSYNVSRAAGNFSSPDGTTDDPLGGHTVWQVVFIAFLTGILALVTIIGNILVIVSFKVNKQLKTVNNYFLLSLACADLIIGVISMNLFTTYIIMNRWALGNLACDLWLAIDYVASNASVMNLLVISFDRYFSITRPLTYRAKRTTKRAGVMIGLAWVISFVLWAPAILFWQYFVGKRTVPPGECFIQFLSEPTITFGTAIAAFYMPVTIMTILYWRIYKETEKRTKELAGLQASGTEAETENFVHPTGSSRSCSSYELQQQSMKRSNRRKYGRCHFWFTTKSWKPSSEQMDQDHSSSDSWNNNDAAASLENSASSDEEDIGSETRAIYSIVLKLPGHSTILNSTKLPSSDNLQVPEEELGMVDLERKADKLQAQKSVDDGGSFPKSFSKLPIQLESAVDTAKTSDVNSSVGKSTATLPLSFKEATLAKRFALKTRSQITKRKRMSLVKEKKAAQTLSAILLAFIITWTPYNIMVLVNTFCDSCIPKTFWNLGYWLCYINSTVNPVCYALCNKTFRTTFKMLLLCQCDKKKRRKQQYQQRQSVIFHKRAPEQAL
Description: Partial agonist activity at C-terminal NanoLuc tagged human muscarinic M3 receptor expressed in HEK293T cells using furimazine as substrate assessed as receptor activation preincubated with substrate for 1 min followed by compound addition and measured for 6 mins 27 sec by NanoBRET assay

[4] = target: T4, Muscarinic acetylcholine receptor M2 (Homo sapiens, UniProt P08172)
T4 sequence (P08172 whole entry): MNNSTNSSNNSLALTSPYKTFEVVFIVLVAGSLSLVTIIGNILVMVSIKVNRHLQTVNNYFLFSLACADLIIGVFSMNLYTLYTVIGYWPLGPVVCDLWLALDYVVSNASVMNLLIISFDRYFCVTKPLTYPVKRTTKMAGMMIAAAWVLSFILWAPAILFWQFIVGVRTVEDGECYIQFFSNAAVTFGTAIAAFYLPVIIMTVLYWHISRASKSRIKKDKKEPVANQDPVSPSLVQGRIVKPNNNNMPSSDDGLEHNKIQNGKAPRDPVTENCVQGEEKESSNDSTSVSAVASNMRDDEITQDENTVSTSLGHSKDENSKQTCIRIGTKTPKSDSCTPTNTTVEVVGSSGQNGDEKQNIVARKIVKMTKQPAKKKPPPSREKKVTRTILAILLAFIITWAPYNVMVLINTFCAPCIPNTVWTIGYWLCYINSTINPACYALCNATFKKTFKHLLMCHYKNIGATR
Description: Partial agonist activity at C-terminal NanoLuc tagged human muscarinic M2 receptor expressed in HEK293T cells using furimazine as substrate assessed as receptor activation preincubated with substrate for 1 min followed by compound addition and measured for 6 mins 27 sec by NanoBRET assay

[5] = target: T5, Muscarinic acetylcholine receptor M1 (Homo sapiens, UniProt P11229)
T5 sequence (P11229 whole entry): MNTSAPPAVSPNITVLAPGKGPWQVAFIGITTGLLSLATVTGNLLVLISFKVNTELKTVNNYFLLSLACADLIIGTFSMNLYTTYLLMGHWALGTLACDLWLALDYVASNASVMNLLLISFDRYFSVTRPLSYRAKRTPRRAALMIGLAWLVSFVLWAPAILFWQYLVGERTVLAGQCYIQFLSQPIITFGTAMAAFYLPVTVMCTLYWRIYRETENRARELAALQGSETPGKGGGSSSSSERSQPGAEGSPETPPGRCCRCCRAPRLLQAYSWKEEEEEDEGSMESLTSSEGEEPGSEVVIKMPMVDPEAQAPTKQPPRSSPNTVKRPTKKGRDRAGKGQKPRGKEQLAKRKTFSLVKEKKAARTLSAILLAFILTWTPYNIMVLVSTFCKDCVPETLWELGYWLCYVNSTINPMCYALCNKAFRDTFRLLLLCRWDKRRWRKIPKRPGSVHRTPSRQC
Description: Partial agonist activity at N-terminal FLAG tagged/C-terminal NanoLuc tagged human muscarinic M1 receptor expressed in HEK293T cells using furimazine as substrate assessed as receptor activation preincubated with substrate for 1 min followed by compound addition and measured for 6 mins 27 sec by NanoBRET assay

[6] = target: T6, Muscarinic acetylcholine receptor M1 (Homo sapiens) (UniProt P11229); assay: (§1) Partial agonist activity at N-terminal FLAG tagged/C-terminal NanoLuc tagged human muscarinic M1 receptor expressed in HEK293T cells using furimazine as substrate assessed as receptor activation at 100 uM preincubated with substrate for 1 min followed by compound addition and measured for 6 mins 27 sec by NanoBRET assay; type: cell-based; conditions: time 387.0 sec
T6 sequence (whole entry): T5 sequence (P11229 whole entry)

[7] = target: T7, Muscarinic acetylcholine receptor M4 (Homo sapiens) (UniProt P08173); assay: as §1, with “M4” for “M1”; type: cell-based; conditions: time 387.0 sec
T7 sequence (whole entry): T1 sequence (P08173 whole entry)

[8] = target: T8, Muscarinic acetylcholine receptor M5 (Homo sapiens) (UniProt P08912); assay: as §1, with “M5” for “M1”; type: cell-based; conditions: time 387.0 sec
T8 sequence (whole entry): T2 sequence (P08912 whole entry)

[9] = target: T3, Muscarinic acetylcholine receptor M3; assay: Partial agonist activity at C-terminal NanoLuc tagged human muscarinic M3 receptor expressed in HEK293T cells using furimazine as substrate assessed as receptor activation at 100 uM preincubated with substrate for 1 min followed by compound addition and measured for 6 mins 27 sec by NanoBRET assay; type: cell-based; conditions: time 387.0 sec
Target sequence in this assay (P20309 whole entry, looked up): as the sequence (P20309 whole entry) above

| EC50 [1] | EC50 [3] | EC50 [4] | EC50 [5] | Activity [6] | Activity [8] | Activity [9] | Structure (SMILES) | EC50 [2] | Activity [7] |
| --- | --- | --- | --- | --- | --- | --- | --- | --- | --- |
|  | 31.6 µM |  |  | inactive | inactive |  | CC[C@H]1C(=O)OC[C@@H]1Cc1c[n+](CCCCCCCC[N+](C)(C)CC(C)(C)CN2C(=O)c3cccc4cccc(c34)C2=O)cn1C |  | inactive |
| 36.3 µM |  |  |  | inactive | inactive | inactive | Cn1c[n+](CCCCCC[N+](C)(C)CC(C)(C)CN2C(=O)c3cccc4cccc(c34)C2=O)cc1CC1COC(=O)C1 (configuration not stated) |  |  |
|  | 16.2 µM | 1.07 µM | 34.7 µM |  |  |  | CC[C@@H]1C(=O)OC[C@@H]1Cc1c[n+](CCCCCC[N+](C)(C)CC(C)(C)CN2C(=O)c3cccc4cccc(c34)C2=O)cn1C |  |  |
| 2.63 µM |  | 0.251 µM | 0.251 µM |  | inactive | inactive | CC(C)(CN1C(=O)c2cccc3cccc(c23)C1=O)C[N+](C)(C)CCCCCC[n+]1c[nH]c(CC2COC(=O)C2)c1 (configuration not stated) |  |  |
|  | 2.82 µM | 0.537 µM | 1.74 µM |  |  |  | CC[C@H]1C(=O)OC[C@@H]1Cc1c[n+](CCCCCC[N+](C)(C)CC(C)(C)CN2C(=O)c3cccc4cccc(c34)C2=O)cn1C |  |  |
| 0.0955 µM |  |  |  | inactive | inactive | inactive | CC[C@@H]1C(=O)OC[C@@H]1Cc1c[n+](CCCCCCCC[N+](C)(C)CC(C)(C)CN2C(=O)c3cccc4cccc(c34)C2=O)cn1C |  |  |

| Structure (SMILES) | EC50 [1] | EC50 [3] | EC50 [4] | EC50 [5] | Activity [6] | Activity [8] | Activity [9] | EC50 [2] | Activity [7] |
| --- | --- | --- | --- | --- | --- | --- | --- | --- | --- |
| O=C1C[C@@H](Cc2cnc[nH]2)CO1 | 7.41 µM | 20.9 µM | 1.38 µM | 6.17 µM |  |  |  | 14.8 µM |  |
| Cn1cncc1C[C@H]1COC(=O)C1 [PILOSININE] |  |  |  |  | inactive |  | inactive | 26.3 µM | inactive |
